Experimental data from US20260258025A1, “INHIBITORS OF TDP-43 AND TAU AGGREGATION” (Aquinnah Pharmaceuticals, inc., priority 2023, published 2026).
Entries after “also recorded” stand apart in the source; their conditions may differ.

Key:
insoluble TDP-43 = experiment: Cell fractionation and immunoblot of TDP-43 in MG-132 challenged human motor neurons; assay type: cell-based; settings: 500 nM Compound 183 with MG-132 1 μM
Description: Cell culture and differentiation of iPS Cells into motor neurons. Pluripotent stem cells were grown with mTeSR Plus medium on tissue culture dishes coated with Matrigel, and maintained in 5% CO2 incubators at 37° C. Stem cells were passaged as small aggregates of cells after 1 mM EDTA treatment. […] was added to the cultures for 16-24 h after dissociation to prevent cell death. The iP11NA iPS cell line was acquired from ALSTEM. This cell line was generated from pre-made footprint-free human iPS cells with DOX inducible Ngn2 that has been stably integrated into the human AAVS1 “Safe Harbor” site, and provides a convenient means to differentiate human iPS cells into neurons rapidly and efficiently. Motor neuron differentiation was achieved using a modified 5-day strategy. […]
For analysis of TDP-43 cellular distribution, d14 motor neurons were lysed with Thermo Subcellular Protein Fractionation Kit for cultured cells and processed according to the manufacturer's instructions. […] Fluorescent secondary antibodies were used for band detection and the Kaleidoscope precision plus protein ladder for size estimation. iBright FL1500 imaging system and software were used to quantitate protein band signal. […]

tau stress granules = experiment: SY5Y-tT1 tau arsenite assay (tau stress granules per cell); assay type: cell-based; settings: SY5Y-tT1 cells, 2 hours compound, 90 minutes arsenite, 50% reduction of granules per cell, read-out: IC50, Inhibitor Activity of Tau Stress Granules
Method in brief: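 SY5Y-tT1 cells were tetracycline-induced for 48 h, pretreated 2 h with serially diluted compounds (PERK inhibitor GSK2606414 as control), then exposed to arsenite for 90 min at 37° C. After fixation and Hoechst staining, tau stress granules per cell were imaged; IC50 is the concentration halving granules per cell.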

- IC50 (tau stress granules): < 500 nM
SMILES: Cc1cc(-c2ccc(C3CCN(C(C)C)CC3)cc2)sc1C(=O)N1CC[C@H](N)C1 [Compound 183, (S)-(3-aminopyrrolidin-1-yl)(5-(4-(1-isopropylpiperidin-4-yl)phenyl)-3-methylthiophen-2-yl)methanone]
- TDP-43 level in the nuclear fraction (immunoblot) (insoluble TDP-43): the levels of TDP-43 in the nucleus were maintained; also recorded: restoring nuclear TDP-43 localization
